# Results: ChEMBL document CHEMBL3885881, “DrugMatrix”
# Species on record: Rattus norvegicus
# Test: DrugMatrix - Regimen: Daily Repeat
# Type: toxicity, organism-based, Sprague-Dawley
# Set-up: regimen Daily Repeat, gender Male, age 6-8 weeks
# Conditions: in vivo, po, 24 mg/kg, route oral GAVAGE, dose level High, […]; for BASOPHIL / EOSINOPHIL / ERYTHROCYTE COUNT / HEMATOCRIT / HEMOGLOBIN / LEUKOCYTE COUNT / LYMPHOCYTE / MEAN CORPUSCULAR HEMOGLOBIN / MEAN CORPUSCULAR HEMOGLOBIN CONCENTRATION / MEAN CORPUSCULAR VOLUME / MONOCYTE / NEUTROPHIL / PLATELET COUNT: tissue Blood; for ALANINE AMINOTRANSFERASE / ALBUMIN / ALKALINE PHOSPHATASE / ASPARTATE AMINOTRANSFERASE / BLOOD UREA NITROGEN / CARBON DIOXIDE / CHLORIDE / CHOLESTEROL / CREATINE PHOSPHOKINASE / CREATININE / GLUCOSE / LACTATE DEHYDROGENASE / LIPASE / PHOSPHORUS / POTASSIUM / SODIUM / TOTAL BILIRUBIN / TOTAL PROTEIN / URIC ACID: tissue Plasma
compound,measurement,setting,value
c1ccoc1 [FURAN],BASOPHIL,"72 h, time 3 day",0.77%
same,EOSINOPHIL,"72 h, time 3 day",0.73%
same,ERYTHROCYTE COUNT,"72 h, time 3 day",7.35 x10E6/uL
same,HEMATOCRIT,"72 h, time 3 day",48.6%
same,HEMOGLOBIN,"72 h, time 3 day",15.9 G/DL
same,LEUKOCYTE COUNT,"72 h, time 3 day",11.15 x10E3/uL
same,LYMPHOCYTE,"72 h, time 3 day",82.1%
same,MEAN CORPUSCULAR HEMOGLOBIN,"72 h, time 3 day",21.57 pg
same,MEAN CORPUSCULAR HEMOGLOBIN CONCENTRATION,"72 h, time 3 day",32.67 G/DL
same,MEAN CORPUSCULAR VOLUME,"72 h, time 3 day",66.1 fL
same,MONOCYTE,"72 h, time 3 day",3.27%
same,NEUTROPHIL,"72 h, time 3 day",11.37%
same,PLATELET COUNT,"72 h, time 3 day",1059 x10E3/uL
same,ALANINE AMINOTRANSFERASE,"72 h, time 3 day",358 u/L
same,ALBUMIN,"72 h, time 3 day",3.77 G/DL
same,ALKALINE PHOSPHATASE,"72 h, time 3 day",771.67 u/L
same,ASPARTATE AMINOTRANSFERASE,"72 h, time 3 day",316 u/L
same,BLOOD UREA NITROGEN,"72 h, time 3 day",12.33 mg/dL
same,CARBON DIOXIDE,"72 h, time 3 day",25 mmol/L
same,CHLORIDE,"72 h, time 3 day",105.67 MEQ/L
same,CHOLESTEROL,"72 h, time 3 day",87.67 mg/dL
same,CREATINE PHOSPHOKINASE,"72 h, time 3 day",333.33 u/L
same,CREATININE,"72 h, time 3 day",0.57 mg/dL
same,GLUCOSE,"72 h, time 3 day",150.67 mg/dL
same,LACTATE DEHYDROGENASE,"72 h, time 3 day",707 u/L
same,LIPASE,"72 h, time 3 day",11.67 u/L
same,PHOSPHORUS,"72 h, time 3 day",13.97 mg/dL
same,POTASSIUM,"72 h, time 3 day",6.6 MEQ/L
same,SODIUM,"72 h, time 3 day",149.33 MEQ/L
same,TOTAL BILIRUBIN,"72 h, time 3 day",0.93 mg/dL
same,TOTAL PROTEIN,"72 h, time 3 day",5.4 G/DL
same,URIC ACID,"72 h, time 3 day",2.27 mg/dL
same,BASOPHIL,"120 h, time 5 day",0.57%
same,EOSINOPHIL,"120 h, time 5 day",0.6%
same,ERYTHROCYTE COUNT,"120 h, time 5 day",7.68 x10E6/uL
same,HEMATOCRIT,"120 h, time 5 day",50.57%
same,HEMOGLOBIN,"120 h, time 5 day",16.23 G/DL
same,LEUKOCYTE COUNT,"120 h, time 5 day",17.47 x10E3/uL
same,LYMPHOCYTE,"120 h, time 5 day",82.63%
same,MEAN CORPUSCULAR HEMOGLOBIN,"120 h, time 5 day",21.1 pg
same,MEAN CORPUSCULAR HEMOGLOBIN CONCENTRATION,"120 h, time 5 day",32.1 G/DL
same,MEAN CORPUSCULAR VOLUME,"120 h, time 5 day",65.87 fL
same,MONOCYTE,"120 h, time 5 day",2.43%
same,NEUTROPHIL,"120 h, time 5 day",12.47%
same,PLATELET COUNT,"120 h, time 5 day",1240.33 x10E3/uL
same,ALANINE AMINOTRANSFERASE,"120 h, time 5 day",114.33 u/L
same,ALBUMIN,"120 h, time 5 day",3.83 G/DL
same,ALKALINE PHOSPHATASE,"120 h, time 5 day",986 u/L
same,ASPARTATE AMINOTRANSFERASE,"120 h, time 5 day",240.67 u/L
same,BLOOD UREA NITROGEN,"120 h, time 5 day",12.33 mg/dL
same,CARBON DIOXIDE,"120 h, time 5 day",30.67 mmol/L
same,CHLORIDE,"120 h, time 5 day",101.67 MEQ/L
same,CHOLESTEROL,"120 h, time 5 day",93.33 mg/dL
same,CREATINE PHOSPHOKINASE,"120 h, time 5 day",798.67 u/L
same,CREATININE,"120 h, time 5 day",0.37 mg/dL
same,GLUCOSE,"120 h, time 5 day",143 mg/dL
same,LACTATE DEHYDROGENASE,"120 h, time 5 day",233.67 u/L
same,LIPASE,"120 h, time 5 day",14.67 u/L
same,PHOSPHORUS,"120 h, time 5 day",12.43 mg/dL
same,POTASSIUM,"120 h, time 5 day",7.1 MEQ/L
same,SODIUM,"120 h, time 5 day",148.33 MEQ/L
same,TOTAL BILIRUBIN,"120 h, time 5 day",0.87 mg/dL
same,TOTAL PROTEIN,"120 h, time 5 day",5.63 G/DL
same,URIC ACID,"120 h, time 5 day",2.27 mg/dL
same,BASOPHIL,time 14 day,0.54%
same,EOSINOPHIL,time 14 day,0.64%
same,ERYTHROCYTE COUNT,time 14 day,8.42 x10E6/uL
same,HEMATOCRIT,time 14 day,50.4%
same,HEMOGLOBIN,time 14 day,16.6 G/DL
same,LEUKOCYTE COUNT,time 14 day,14.86 x10E3/uL
same,LYMPHOCYTE,time 14 day,74.12%
same,MEAN CORPUSCULAR HEMOGLOBIN,time 14 day,19.76 pg
same,MEAN CORPUSCULAR HEMOGLOBIN CONCENTRATION,time 14 day,32.96 G/DL
same,MEAN CORPUSCULAR VOLUME,time 14 day,59.9 fL
same,MONOCYTE,time 14 day,2.54%
same,NEUTROPHIL,time 14 day,20.58%
same,PLATELET COUNT,time 14 day,1423.6 x10E3/uL
same,ALANINE AMINOTRANSFERASE,time 14 day,56 u/L
same,ALBUMIN,time 14 day,4.28 G/DL
same,ALKALINE PHOSPHATASE,time 14 day,706.2 u/L
same,ASPARTATE AMINOTRANSFERASE,time 14 day,86.6 u/L
same,BLOOD UREA NITROGEN,time 14 day,13.2 mg/dL
same,CARBON DIOXIDE,time 14 day,27 mmol/L
same,CHLORIDE,time 14 day,104 MEQ/L
same,CHOLESTEROL,time 14 day,106.8 mg/dL
same,CREATINE PHOSPHOKINASE,time 14 day,224.2 u/L
same,CREATININE,time 14 day,0.42 mg/dL
same,GLUCOSE,time 14 day,136.6 mg/dL
same,LACTATE DEHYDROGENASE,time 14 day,113.8 u/L
same,LIPASE,time 14 day,17.2 u/L
same,PHOSPHORUS,time 14 day,10.26 mg/dL
same,POTASSIUM,time 14 day,5.84 MEQ/L
same,SODIUM,time 14 day,148.4 MEQ/L
same,TOTAL BILIRUBIN,time 14 day,0.72 mg/dL
same,TOTAL PROTEIN,time 14 day,6.34 G/DL
same,URIC ACID,time 14 day,1.26 mg/dL
